Literature values as cited in patent US20050027113A1, “Compositions and methods relating to the daptomycin biosynthetic gene cluster” (priority 2001, published 2005).

Columns and labels:
[1] = administration of daptomycin and an aminoglycoside

CCCCCCCCCC(=O)N[C@@H](Cc1c[nH]c2ccccc12)C(=O)N[C@H](CC(N)=O)C(=O)N[C@@H](CC(=O)O)C(=O)N[C@@H]1C(=O)NCC(=O)N[C@@H](CCCN)C(=O)N[C@@H](CC(=O)O)C(=O)N[C@H](C)C(=O)N[C@@H](CC(=O)O)C(=O)NCC(=O)N[C@H](CO)C(=O)N[C@@H]([C@H](C)CC(=O)O)C(=O)N[C@@H](CC(=O)c2ccccc2N)C(=O)O[C@@H]1C [daptomycin]
antibacterial activity against classically resistant strains versus classically susceptible strains (gram-positive organisms; in vitro experiments): comparable | minimum inhibitory concentration (MIC) value against susceptible strains, relative to vancomycin (gram-positive organisms; susceptible strains, fold lower than vancomycin): ~4 fold | bactericidal activity against gram-positive organisms (gram-positive organisms; unlike glycopeptide antibiotics): rapid, concentration-dependent bactericidal activity | effect on renal toxicity caused by a co-administered aminoglycoside [1]: may ameliorate renal toxicity caused by the aminoglycoside
